Experiments:
[1] = test system: ventral prostate; assay: Androgenic effect in castrated male rats (ventral prostate weight); assay type: in vivo; conditions: both after subcutaneous and intraperitoneal administration; one daily injection for 7 days; preliminary experiments
Protocol: The androgenic activity, as described below, is determined with established methods (see e.g. Dorfman, R.: Methods in Hormone Research, vol. II, Acad. Press, New York and London 1962, p. 275).
The androgenic effect is assayed in castrated male rats. Beginning two weeks after castration the animals are given one daily injection of the compound for 7 days. The weight of the ventral prostate is determined on the 8th day.

[2] = test system: Hepatoma AH 130; assay: Hepatoma AH 130 tumour growth inhibition in rats, i.p.; assay type: in vivo, Sprague-Dawley rats; conditions: Hepatoma AH 130, one injection i.p.
Source text: (§1) LD50 is the dose that causes a 50 percent lethality of the animals, and ED50 is the dose that causes a 50 percent reduction of tumour size.
(§2) From the data below it is obvious that the compounds have a very low toxicity, and that the therapeutic indexes (T.I.), i.e. the ratios LD50/ED50, are very high.
(§3) The experimental design is in accordance with the standards set by the CCNSC (Cancer Cheomotherapy Reports, January 1959 and December 1962).
(§4) Experimental animals: Sprague-Dawley rats.
Tumour implant: 5 × 10^6 tumour cells i.p.
(§5) Therapy: One injection i.p. on the day following implantation.
(§6) Termination: The animals are killed on the 8th day.
(§7) Evaluation: Weights of tumours of test animals are compared
(§8) with those of control animals.

[3] = Thymolytic activity (Hilger, Endocrine Bioassay Data, assay 8); assay type: in vivo; conditions: preliminary experiments
Source text: In preliminary experiments, invvestigating the thymolytic effect according to A. C.

[4] = test system: Ehrlich ascites tumour, ELD hyperdiploid (46 chromosomes); assay: Ehrlich ascites tumour growth inhibition in mice, i.p.; assay type: in vivo, SPF NMRI mice; conditions: one injection i.p.; for Tumour weight Treated/Control (%): killed on 8th day
Source text: as §3
Ehrlich ascites tumour, ELD hyperdiploid
Experimental animals: SPF NMRI mice.
Tumour implant: 2 × 10^6 tumour cells i.p.
as §5, §6
Evaluation: Weight of tumours of test animals compared with
those of control animals.

[5] = Progestional activity, Clauberg test; assay type: in vivo; conditions: standard scale of McPhail, preliminary experiments
Source text: The progestional activities of compounds 1:1, 1:2, 1:14, 2:2, and 2:11 are investigated in the Clauberg test using the prinicpal procedure as described by Elton and Edgren (Endocrinology 63 (1958) 464) and using the standard scale of McPhail (J. Physiol., London, 8 (1934) 145).

[6] = test system: Walker carcinosarcoma 256; assay: Walker carcinosarcoma 256 tumour growth inhibition in rats, p.o.; assay type: in vivo, Sprague-Dawley rats; conditions: Walker carcinosarcoma 256, daily p.o. for 5 days
Source text: as §1, §2, §3
Walker carcinosarcoma 256
as §4
Tumour implant: Tumour pieces with 2-4 mm diameter, subcu-
Therapy: Daily p.o. administration for 5 days starting on
the day following implantation.
Termination: The animals are killed on the 9th day.
as §7, §8

In the case of `CC(=O)O[C@H]1CC[C@H]2[C@@H]3CC=C4C=C(OC(=O)Cc5ccc(N(CCCl)CCCl)cc5)CC[C@]4(C)[C@H]3CC[C@]12C` [1:3], the androgenic effect [1] is reported as “considerable effect”.

In the case of `CC(=O)O[C@H]1CC[C@H]2[C@@H]3CC=C4C=C(OC(=O)CCCc5ccc(N(CCCl)CCCl)cc5)CC[C@]4(C)[C@H]3CC[C@]12C` [1:11, 17β-acetoxy-3-[4-(4-(N,N-bis(2-chloroethyl)amino)phenyl)butanoyloxy]androsta-3,5-diene], the androgenic effect [1] is reported as “considerable effect”.

In the case of `CC(=O)O[C@H]1CC[C@H]2[C@@H]3CCC4CC(OC(=O)CCCc5ccc(N(CCCl)CCCl)cc5)=CC[C@]4(C)[C@H]3CC[C@]12C` (stereo partly drawn) [1:12, 17β-acetoxy-3-[4-(4-(N,N-bis(2-chloroethyl)amino)phenyl)butanoyloxy]androst-2-ene], the androgenic effect [1] is reported as “considerable effect”.

With `CCC(=O)O[C@H]1CC[C@H]2[C@@H]3CC=C4C=C(OC(=O)[C@H](Cc5ccc(N(CCCl)CCCl)cc5)NC(C)=O)CC[C@]4(C)[C@H]3CC[C@]12C` [1:13, 3-[(2S)-2-acetamido-3-(4-(N,N-bis(2-chloroethyl)amino)phenyl)propanoyloxy]-17β-propanoyloxyandrosta-3,5-diene] the anti-tumour activity [2] was “exhibit anti-tumour activity”.

For `CC(=O)OCC(=O)[C@@]1(OC(C)=O)CC[C@H]2[C@@H]3CC=C4C=C(OC(=O)CCCc5ccc(N(CCCl)CCCl)cc5)CC[C@]4(C)[C@H]3C(=O)C[C@@]21C` [1:15, 17,21-diacetoxy-3-[4-(4-(N,N-bis(2-chloroethyl)amino)phenyl)butanoyloxy]pregna-3,5-dien-11,20-dione], the thymolytic effect [3] was “significant activity”.

For `CC(=O)OCC(=O)[C@@]1(OC(C)=O)CC[C@H]2[C@@H]3CC=C4C=C(OC(=O)CCCc5ccc(N(CCCl)CCCl)cc5)CC[C@]4(C)[C@H]3CC[C@@]21C` [1:16, 17,21-diacetoxy-3-[4-(4-(N,N-bis(2-chloroethyl)amino)phenyl)butanoyloxy]-pregna-3,5-dien-20-one], the thymolytic effect [3] was “significant activity”.

In the case of `CC(=O)OCC(=O)[C@H]1CC[C@H]2[C@@H]3CC=C4C=C(OC(=O)CCCc5ccc(N(CCCl)CCCl)cc5)CC[C@]4(C)[C@H]3CC[C@]12C` [1:17, 21-acetoxy-3-[4-(4-(N,N-bis(2-chloroethyl)amino)phenyl)butanoyloxy]-pregna-3,5-dien-20-one], the thymolytic effect [3] is reported as “significant activity”.

For `CC(=O)O[C@]1(C(C)=O)CC[C@H]2[C@@H]3CC=C4C=C(OC(=O)c5ccc(C)c(N(CCCl)CCCl)c5)CC[C@]4(C)[C@H]3CC[C@@]21C` [2:11, 17-acetoxy-3-[3-(N,N-bis(2-chloroethyl)amino)-4-methylbenzoyloxy]pregna-3,5-dien-20-one], the Mortality ([4]; 1000 mg/kg) was 0/12, the “Tumour weight Treated/Control (%)” value ([4]; 1000 mg/kg) was 2% and the progestional activity [5] was “considerable activity”.

For `CC(=O)O[C@]1(C(C)=O)CC[C@H]2[C@@H]3CC=C4C=C(OC(=O)CCCc5ccc(N(CCCl)CCCl)cc5)CC[C@]4(C)[C@H]3CC[C@@]21C` [Compound 1:1, 17-acetoxy-3-/4-(4-(N,N-bis(2-chloroethyl)amino)phenyl)butanoyloxy/pregna-3,5-dien-20-one], the Mortality ([4]; 500 mg/kg) was 0/12, the “Tumour weight Treated/Control (%)” value ([4]; 500 mg/kg) was 1% and the progestional activity [5] was “considerable activity”. The anti-tumour activity [2] was “exhibit anti-tumour activity”.

In the case of `CC(=O)[C@H]1CC[C@H]2[C@@H]3CC=C4C=C(OC(=O)CCCc5ccc(N(CCCl)CCCl)cc5)CC[C@]4(C)[C@H]3CC[C@]12C` [Compound 1:2, 3-/4-(4-(N,N-bis(2-chloroethyl)amino)phenyl)butanoyloxy/pregna-3,5-dien-20-one], the progestional activity [5] is reported as “considerable activity”.

In the case of `CC(=O)O[C@]1(C(C)=O)CC[C@H]2[C@@H]3CC=C4C=C(OC(=O)Cc5ccc(N(CCCl)CCCl)cc5)CC[C@]4(C)[C@H]3CC[C@@]21C` [Compound 1:14, 17-acetoxy-3-[4-(N,N-bis(2-chloroethyl)amino)phenylacetoxy]pregna-3,5-dien-20-one], the progestional activity [5] is reported as “considerable activity”.

With `CC(=O)O[C@H]1CC[C@H]2[C@@H]3CC[C@H]4CC(OC(=O)c5ccc(C)c(N(CCCl)CCCl)c5)=CC[C@]4(C)[C@H]3CC[C@]12C` [Compound 2:1, 17β-acetoxy-3-/3-(N,N-bis(2-chloroethyl)amino)-4-methylbenzoyloxy/androst-2-ene] the anti-tumour activity [6] was “exhibit anti-tumour activity”.

In the case of `C#C[C@]1(OC(C)=O)CC[C@H]2[C@@H]3CC=C4C=C(OC(=O)CCCc5ccc(N(CCCl)CCCl)cc5)CC[C@@H]4[C@H]3CC[C@@]21C` [Compound 2:2, 17β-acetoxy-3/4-(4-(N,N-bis(2-chloroethyl)amino)phenyl)butanoyloxy/-17α-ethynylestra-3,5-diene], the progestional activity [5] is reported as “considerable activity”.

Source: patent US4150126A, “Novel enol esters of steroids, compositions containing such compounds, processes for their preparation and methods of treatment therewith” (Aktiebolaget Leo, priority 1976, dated 1979)
